In patent US10828315B2 (Madrigal Pharmaceuticals, Inc., priority 2013, dated 2020):
Several values for one entry are separate records, joined by “and”; a condition that tells them apart may be missing. Equal entries are not always repeated. Where two headings read alike, the source gives them in different places. One block for each compound: values may come before it.

Tests used:
[1] = tested on: Human H3122 NSCLC cells; experiment: Cell viability assay (CellTiter-Glo) in H3122 cells (Example 4); type: cell-based; conditions: NCI-H3122
Experimental: Human H3122 NSCLC cells were obtained and grown in RPMI in the presence of fetal bovine serum (10%), 2 mM L-glutamine and antibiotics (100 IU/ml penicillin and 100 μg/ml streptomycin, Sigma Aldrich.) Cells were maintained at 37° C., 5% CO2 atmosphere.
Cell viability was measured using the CellTiter-Glo® assay (Promega). In brief, cells were plated in 96-well plates in triplicate at optimal seeding density (determined empirically) and incubated at 37° C., 5% CO2 atmosphere for 24 hr prior to the addition of drug or vehicle (0.3% DMSO) to the culture medium. At the end of the assay, CellTiter-Glo was added to the wells per manufacturer's recommendation, shaken for two minutes and incubated for 10 minutes at room temperature. Luminescence (0.1 sec) was measured with a Victor II microplate reader (Perkin Elmer) and the resulting data were used to calculate cell viability, normalized to vehicle control.
Cells as described above were treated with exemplary SDC-TRAPs and their viability determined as above as well. The following table illustrates the results.

[2] = Artificial membrane permeability assay (PAMPA)
[3] = tested on: HER2; experiment: HER2 degradation in BT-474 cells (Example 3, Methods 1 and 2); type: cell-based, human
Description: This example illustrates how a HER2 degradation assay may be used as a test to determine and select Hsp90-targeting moieties suitable for use in SDC-TRAPs of the invention, and further illustrates the ability of SDC-TRAPs to target cells preferentially expressing Hsp90. Such a test may further be used to determine the Hsp90 binding ability of SDC-TRAPs of the invention, as well as through competitive binding assays and cell-based Hsp90 client protein degradation assays known in the art.
After treatment, each cytoplasmic sample is prepared from 1×10^6 cells by incubation of cell lysis buffer (#9803, Cell Signaling Technology) on ice for 10 minutes. The resulting supernatant used as the cytosol fractions is dissolved with sample buffer for SDS-PAGE and run on a SDS-PAGE gel, blotted onto a nitrocellulose membrane by using semi-dry transfer. Non-specific binding to nitrocellulose is blocked with 5% skim milk in TBS with 0.5% Tween at room temperature for 1 hour, then probed with anti-HER2/ErB2 mAb (rabbit IgG, #2242, Cell Signaling) and anti-Tubulin (T9026, Sigma) as housekeeping control protein. HRP-conjugated goat anti-rabbit IgG (H+L) and HRP-conjugated horse anti-mouse IgG (H+L) are used as secondary Ab (#7074#7076, Cell Signaling) and LumiGLO reagent, 20× Peroxide (#7003, Cell Signaling) is used for visualization. The Hsp90 client protein HER2 is degraded when cells are treated with Hsp90-targeting moieties or SDC-TRAPs of the invention.
BT-474 cells are plated in the interior 60 wells of a 96 well black clear bottom plate (20,000 cells/well) in DMEM medium, with DMEM media in the surrounding 36 wells, and incubated at 37° C. with 5% CO2 overnight. On the second day, concentration response curve source plates are produced (10 point, 3-fold dilution of compounds in DMSO) followed by a 1:30 dilution in an intermediate dilution plate containing DMEM. Compound is transferred from the intermediate plate to the cell plate at a dilution of 1:10. The cells are then incubated at 37° C. with 5% CO2 for 24 hours.
Cells are then fixed in 4% phosphate-buffered paraformaldehyde for 30 minutes at room temperature and then permeabilized by washing five times with 0.1% Triton X-100 in PBS for 5 minutes at room temperature on a shaker. […] Cells are washed five times with 0.1% Tween-20 in PBS for 5 minutes at room temperature on a shaker and incubated with fluorescently-labeled secondary antibody (LI-COR, #926-32211) diluted 1:1000 in blocking buffer, and DRAQ5 nuclear stain (Biostatus Limited, # DRAQ5) diluted 1:10,000, at room temperature on a shaker for 1 hour. Cells are washed 5 times with 0.1% Tween-20 in PBS for 5 minutes at room temperature on a shaker and imaged on a LI-COR Odyssey imaging station. The raw data is normalized to DRAQ5 and the HER2 EC50 is calculated using XLfit™.

[4] = tested on: HER2; experiment: HER2 degradation assay with BT-474 cell line (Example 12, FACS); type: cell-based, human
[5] = tested on: H 3211 NSLC cells; experiment: IC50 of continuous and pulsed exposure (Examples 9 and 10); type: cell-based
[6] = Stability in cell culture media (Example 18)
[7] = Mouse plasma stability protocol, up to 1 h (Examples 16-18)
[8] = read-out: IC50, 1h-pulse/71h-compound free, 7.5 × 10^3 cells/well, two replicate columns
[9] = read-out: IC50, 72h-continuous, 7.5 × 10^3 cells/well, three replicate columns

SMILES: CCc1c2c(nc3ccc(OC(=O)N(C)CCOCCn4ccc5cc(-n6c(O)nnc6-c6cc(C(C)C)c(O)cc6O)ccc54)cc13)-c1cc3c(c(=O)n1C2)COC(=O)C3(O)CC (stereo not drawn) [SDC-TRAP-0029, 4,11-diethyl-4-hydroxy-3,14-dioxo-3,4,12,14-tetrahydro-1H-pyrano[3′,4′:6,7]indolizino[1,2-b]quinolin-9-yl (2-(2-(5-(3-(2,4-dihydroxy-5-isopropylphenyl)-5-hydroxy-4H-1,2,4-triazol-4-yl)-1H-indol-1-yl)ethoxy)ethyl)(methyl)carbamate]
- IC50 [3]: 1600 nM
- IC50 [4]: 1370 nM
- IC50 [1]: 125 nM
- IC50 ([5]; 1 h, read-out: IC50, 1h-pulse/71h-compound free, 7.5 × 10^3 cells/well, two replicate columns): > 3000 nM
- IC50 [5, 8]: > 3000 nM
- Media (5 μM) % Remaining 19 h (37° C.) [6]: 29%
- Media (5 μM) % Remaining 1 h (37° C.)§ ([6]; data from single parent peak): 43%
- Media (5 μM) % Remaining 1 h (37° C.)* ([6]; sum of both peaks): 46%
- Mass Retention ([2]; same protocol, second table): 84.0%
- % Remaining (1 h) ([7]; % Remaining of parent after 1 h incubation in mouse plasma at 37° C. (10 μM)): 47.0%
- % Remaining (1 h, 37° C.) ([7]; mouse plasma, 1 h, 37° C.): 47%
- Mouse (10 μM) % Remaining 1 h (37° C.)§ ([7]; mouse plasma, data from single parent peak): 44%
- Mouse (10 μM) % Remaining 1 h (37° C.)* ([7]; mouse plasma, sum of both peaks): 47%

SMILES: CC(C)c1cc(-c2nnc(O)n2-c2ccc3c(ccn3CCOCCNC(=O)c3ccc(CCc4c[nH]c5nc(N)[nH]c(=O)c45)cc3)c2)c(O)cc1O [SDC-TRAP-0020, 4-(2-(2-amino-4-oxo-4,7-dihydro-3H-pyrrolo[2,3-d]pyrimidin-5-yl)ethyl)-N-(2-(2-(5-(3-(2,4-dihydroxy-5-isopropylphenyl)-5-hydroxy-4H-1,2,4-triazol-4-yl)-1H-indol-1-yl)ethoxy)ethyl)benzamide]
- IC50 [1]: 1740 nM

SMILES: CCc1c2c(nc3ccc(OCC(=O)N(C)CCn4ccc5cc(-n6c(O)nnc6-c6cc(C(C)C)c(O)cc6O)ccc54)cc13)-c1cc3c(c(=O)n1C2)COC(=O)C3(O)CC (stereo not drawn) [SDC-TRAP-0027, 2-((4,11-diethyl-4-hydroxy-3,14-dioxo-3,4,12,14-tetrahydro-1H-pyrano[3′,4′:6,7]indolizino[1,2-b]quinolin-9-yl)oxy)-N-(2-(5-(3-(2,4-dihydroxy-5-isopropylphenyl)-5-hydroxy-4H-1,2,4-triazol-4-yl)-1H-indol-1-yl)ethyl)-N-methylacetamide]
- IC50 [1]: 1350 nM
- IC50 ([5]; 72 h, read-out: IC50, 72h-continuous, 7.5 × 10^3 cells/well, three replicate columns): 984 nM

SMILES: CC(C)c1cc(-c2nnc(O)n2-c2ccc3c(ccn3CCN(C)C(=O)c3ccc(CCc4c[nH]c5nc(N)[nH]c(=O)c45)cc3)c2)c(O)cc1O [SDC-TRAP-0019, 4-(2-(2-amino-4-oxo-4,7-dihydro-3H-pyrrolo[2,3-d]pyrimidin-5-yl)ethyl)-N-(2-(5-(3-(2,4-dihydroxy-5-isopropylphenyl)-5-hydroxy-4H-1,2,4-triazol-4-yl)-1H-indol-1-yl)ethyl)-N-methylbenzamide]
- IC50 [1]: 393 nM

SMILES: CCc1c2c(nc3ccc(OC(=O)N(C)CCN(C)C(=O)c4cc5cc(-n6c(O)nnc6-c6cc(C(C)C)c(O)cc6O)ccc5n4C)cc13)-c1cc3c(c(=O)n1C2)COC(=O)C3(O)CC (stereo not drawn) [SDC-TRAP-0010]
- IC50 [3]: > 5000 nM
- IC50 [4]: > 5000 nM
- IC50 [1]: 234 nM
- IC50 [5, 9]: 144 nM and 327 nM and 232 nM

SMILES: CCc1c2c(nc3ccc(OCC(=O)NCCn4ccc5cc(-n6c(O)nnc6-c6cc(C(C)C)c(O)cc6O)ccc54)cc13)-c1cc3c(c(=O)n1C2)COC(=O)C3(O)CC (stereo not drawn) [SDC-TRAP-0023, 2-((4,11-diethyl-4-hydroxy-3,14-dioxo-3,4,12,14-tetrahydro-1H-pyrano[3′,4′:6,7]indolizino[1,2-b]quinolin-9-yl)oxy)-N-(2-(5-(3-(2,4-dihydroxy-5-isopropylphenyl)-5-hydroxy-4H-1,2,4-triazol-4-yl)-1H-indol-1-yl)ethyl)acetamide]
- IC50 [1]: 137 nM
- IC50 [5, 9]: < 12 nM

SMILES: CCc1c2c(nc3ccc(O)cc13)-c1cc3c(c(=O)n1C2)COC(=O)C3(CC)OC(=O)CCCNC(=O)c1cc2cc(-n3c(O)nnc3-c3cc(C(C)C)c(O)cc3O)ccc2n1C (stereo not drawn) [SDC-TRAP-0024, 4,11-diethyl-9-hydroxy-3,14-dioxo-3,4,12,14-tetrahydro-1H-pyrano[3′,4′:6,7]indolizino[1,2-b]quinolin-4-yl 4-(5-(3-(2,4-dihydroxy-5-isopropylphenyl)-5-hydroxy-4H-1,2,4-triazol-4-yl)-1-methyl-1H-indole-2-carboxamido)butanoate]
- IC50 [3]: > 5000 nM
- IC50 [1]: 99 nM
- IC50 [5, 8]: 697 nM and 2210 nM
- IC50 [5, 9]: < 12 nM and 118 nM and 104 nM

The remaining lines, values ahead:

- IC50 [1]: 620 nM
- Mass Retention ([2]; incubation 5 h, first table): 14.7%
SMILES: CC(C)c1cc(-c2nnc(O)n2-c2ccc3c(ccn3CCN(C)C(=O)CCCC(=O)Nc3cccc4c3CN(C3CCC(=O)NC3=O)C4=O)c2)c(O)cc1O (stereo not drawn) [SDC-TRAP-0018, N1-(2-(5-(3-(2,4-dihydroxy-5-isopropylphenyl)-5-hydroxy-4H-1,2,4-triazol-4-yl)-1H-indol-1-yl)ethyl)-N5-(2-(2,6-dioxopiperidin-3-yl)-1-oxoisoindolin-4-yl)-N1-methylglutaramide]

- IC50 [1]: 717 nM
SMILES: CC(C)c1cc(-c2nnc(O)n2-c2ccc3c(ccn3CCN(C)C(=O)NCC(=O)Nc3cccc4c3CN(C3CCC(=O)NC3=O)C4=O)c2)c(O)cc1O (stereo not drawn) [SDC-TRAP-0021, 2-(3-(2-(5-(3-(2,4-dihydroxy-5-isopropylphenyl)-5-hydroxy-4H-1,2,4-triazol-4-yl)-1H-indol-1-yl)ethyl)-3-methylureido)-N-(2-(2,6-dioxopiperidin-3-yl)-1-oxoisoindolin-4-yl)acetamide]

- IC50 [1]: 1270 nM
- IC50 [5, 9]: 796 nM
SMILES: CC(C)c1cc(-c2nnc(O)n2-c2ccc3c(ccn3CCOCCNC(=O)CCCC(=O)Nc3cccc4c3CN(C3CCC(=O)NC3=O)C4=O)c2)c(O)cc1O (stereo not drawn) [SDC-TRAP-0015, N1-(2-(2-(5-(3-(2,4-dihydroxy-5-isopropylphenyl)-5-hydroxy-4H-1,2,4-triazol-4-yl)-1H-indol-1-yl)ethoxy)ethyl)-N5-(2-(2,6-dioxopiperidin-3-yl)-1-oxoisoindolin-4-yl)glutaramide]

- IC50 [1]: > 3000 nM
SMILES: CC(C)c1cc(-c2nnc(O)n2-c2ccc3c(ccn3CCC(=O)Nc3cccc4c3CN(C3CCC(=O)NC3=O)C4=O)c2)c(O)cc1O (stereo not drawn) [SDC-TRAP-0017, 3-(5-(3-(2,4-dihydroxy-5-isopropylphenyl)-5-hydroxy-4H-1,2,4-triazol-4-yl)-1H-indol-1-yl)-N-(2-(2,6-dioxopiperidin-3-yl)-1-oxoisoindolin-4-yl)propanamide]
